Values joined by “and” are separate entries in the source; they are usually repeats but may differ in a detail not shown here. Equal entries are not always repeated. Toxic doses and inconclusive results are not listed. Rule as the data show it: active = T/C of 150% or more; inactive = T/C below 125%.
System: L1210 leukemia ip in BDF1 mice, survival T/C
Assay: NCI In Vivo Anticancer Drug Screen. Data for tumor model L1210 Leukemia (intraperitoneal) in B6D2F1 (BDF1) mice
Details: endpoint: mean survival time, higher = longer survival
Outline: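 In this screen, tumor-bearing mice given compound are compared to those given vehicle, and their survival values are reported as a treated-to-control quotient.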

[1] = dose: 100.0 mg/kg/injection, schedule: Q04DX003 (ip), vehicle: saline
[2] = dose: 100.0 mg/kg/injection, schedule: Q01DX001 (ip), vehicle: carboxymethylcellulose (CMC)
[3] = dose: 200.0 mg/kg/injection, schedule: Q01DX001 (ip), vehicle: carboxymethylcellulose (CMC)
[4] = dose: 400.0 mg/kg/injection, schedule: Q01DX001 (ip), vehicle: carboxymethylcellulose (CMC)
[5] = dose: 100.0 mg/kg/injection, schedule: Q01DX001 (ip), vehicle: saline
[6] = dose: 200.0 mg/kg/injection, schedule: Q01DX001 (ip), vehicle: saline
[7] = dose: 100.0 mg/kg/injection, schedule: Q04DX003 (ip), vehicle: saline with Tween-80
[8] = dose: 200.0 mg/kg/injection, schedule: Q04DX003 (ip), vehicle: saline with Tween-80
[9] = dose: 400.0 mg/kg/injection, schedule: Q04DX003 (ip), vehicle: saline with Tween-80
[10] = dose: 100.0 mg/kg/injection, schedule: Q04DX002 (ip), vehicle: Klucel (hydroxypropylcellulose) (HPC)
[11] = dose: 200.0 mg/kg/injection, schedule: Q04DX002 (ip), vehicle: Klucel (hydroxypropylcellulose) (HPC)
[12] = dose: 400.0 mg/kg/injection, schedule: Q04DX002 (ip), vehicle: Klucel (hydroxypropylcellulose) (HPC)
[13] = dose: 100.0 mg/kg/injection, schedule: Q04DX003 (ip), vehicle: Klucel (hydroxypropylcellulose) (HPC)
[14] = dose: 200.0 mg/kg/injection, schedule: Q04DX003 (ip), vehicle: Klucel (hydroxypropylcellulose) (HPC)
[15] = dose: 400.0 mg/kg/injection, schedule: Q04DX003 (ip), vehicle: Klucel (hydroxypropylcellulose) (HPC)
[16] = dose: 200.0 mg/kg/injection, schedule: Q01DX009 (ip), vehicle: saline
[17] = dose: 400.0 mg/kg/injection, schedule: Q01DX009 (ip), vehicle: saline
[18] = dose: 100.0 mg/kg/injection, schedule: Q01DX009 (ip), vehicle: saline

Measured: T/C

C[N+](C)(C)CC#N
inactive: [1] 95 % of control | dose: 200.0 mg/kg/injection, schedule: Q04DX003 (ip), vehicle: saline 95 % of control

CCCCCOC(=O)c1ccc(C)s1
inactive: [2] 90 % of control | [3] 101 % of control | [4] 98 % of control

CCCCCCCCCCCCCCCCCC[N+]1(Cc2ccccc2)CCOCC1
inactive: dose: 100.0 mg/kg/injection, schedule: Q01DX001 (ip), vehicle: Klucel (hydroxypropylcellulose) (HPC) 110 % of control

O=C(Nc1ccc(C2=NCCN2)c(O)c1)c1ccc(C(=O)Nc2ccc(C3=NCCN3)c(O)c2)cc1
inactive: dose: 8.0 mg/kg/injection, schedule: Q01DX Z (ip), vehicle: carboxymethylcellulose (CMC) 103 % of control | dose: 16.0 mg/kg/injection, schedule: Q01DX Z (ip), vehicle: carboxymethylcellulose (CMC) 88 % of control | dose: 31.0 mg/kg/injection, schedule: Q01DX Z (ip), vehicle: carboxymethylcellulose (CMC) 88 % of control | dose: 62.0 mg/kg/injection, schedule: Q01DX Z (ip), vehicle: carboxymethylcellulose (CMC) 90 % of control

O=C1OC(=O)c2c1cccc2[N+](=O)[O-]
inactive: dose: 25.0 mg/kg/injection, schedule: Q01DX009 (ip), vehicle: saline with Tween-80 97 % of control | dose: 50.0 mg/kg/injection, schedule: Q01DX009 (ip), vehicle: saline with Tween-80 90 % of control | dose: 100.0 mg/kg/injection, schedule: Q01DX009 (ip), vehicle: saline with Tween-80 94 % of control and 88 % of control

COc1cc2cc(C(=O)O)sc2cc1OC
inactive: [5] 91 % of control | [6] 91 % of control | dose: 400.0 mg/kg/injection, schedule: Q01DX001 (ip), vehicle: saline 91 % of control

C=CCOC(=O)CCl
inactive: dose: 55.0 mg/kg/injection, schedule: Q01DX Z (ip), vehicle: methylcellulose (MC) 87 % of control | dose: 100.0 mg/kg/injection, schedule: Q01DX001 (ip), vehicle: saline with Tween-80 92 % of control | dose: 200.0 mg/kg/injection, schedule: Q01DX001 (ip), vehicle: saline with Tween-80 98 % of control

SCC1SCCCS1
inactive: dose: 12.5 mg/kg/injection, schedule: Q04DX002 (ip), vehicle: saline with Tween-80 97 % of control | dose: 25.0 mg/kg/injection, schedule: Q04DX002 (ip), vehicle: saline with Tween-80 113 % of control | dose: 50.0 mg/kg/injection, schedule: Q04DX002 (ip), vehicle: saline with Tween-80 97 % of control

CCOC(=O)C1C(O)=C(c2ccccc2)P(=O)(Cc2ccccc2)C1(C)C (centres undefined)
inactive: [7] 94 % of control | [8] 94 % of control | [9] 91 % of control

CC1(c2cccc(Cl)c2)NC(=O)NC1=O (centres undefined)
inactive: [10] 112 % of control | [11] 105 % of control | [12] 108 % of control

CC(=O)Oc1ccc(Cl)cc1C=O
inactive: [5] 105 % of control | [6] 103 % of control

O=C(O)c1ccc(C(=O)O)o1
inactive: [10] 95 % of control | [11] 91 % of control | [12] 91 % of control

Cc1ccc(C(=O)Nc2ccc([N+](=O)[O-])cc2)cc1
inactive: [13] 88 % of control | [14] 100 % of control | [15] 98 % of control

O=C(Nc1ccccc1)Oc1c(Cl)cc(Cl)c(Cl)c1[N+](=O)[O-]
inactive: dose: 25.0 mg/kg/injection, schedule: Q01DX009 (ip), vehicle: Klucel (hydroxypropylcellulose) (HPC) 100 % of control | dose: 50.0 mg/kg/injection, schedule: Q01DX009 (ip), vehicle: Klucel (hydroxypropylcellulose) (HPC) 93 % of control | dose: 100.0 mg/kg/injection, schedule: Q01DX009 (ip), vehicle: Klucel (hydroxypropylcellulose) (HPC) 91 % of control

Cc1ccc(C)c(C(=O)c2ccccc2C(=O)O)c1
inactive: dose: 10.0 mg/kg/injection, schedule: Q01DX009 (ip), vehicle: saline 101 % of control | dose: 100.0 mg/kg/injection, schedule: Q01DX009 (ip), vehicle: saline sonified 98 % of control | [7] 90 % of control | dose: 200.0 mg/kg/injection, schedule: Q01DX009 (ip), vehicle: saline sonified 94 % of control | [16] 103 % of control | [8] 94 % of control | dose: 400.0 mg/kg/injection, schedule: Q01DX009 (ip), vehicle: saline sonified 105 % of control | [17] 98 % of control | [9] 90 % of control

CCCC(C)c1ccccc1O (centres undefined)
inactive: [7] 95 % of control

CC(=O)Nc1cc(C)no1
inactive: [18] 103 % of control | [13] 102 % of control | [16] 100 % of control | [14] 96 % of control | [17] 101 % of control | [15] 92 % of control

CC1CC[N+]2(CC(=O)c3ccc(Br)cc3)CCCC12 (centres undefined)
inactive: dose: 12.5 mg/kg/injection, schedule: Q01DX001 (ip), vehicle: saline 101 % of control | dose: 25.0 mg/kg/injection, schedule: Q01DX001 (ip), vehicle: saline 104 % of control | dose: 50.0 mg/kg/injection, schedule: Q01DX001 (ip), vehicle: saline 98 % of control

CC(=O)OCCOc1ccc([N+](=O)[O-])cc1
inactive: [7] 102 % of control | [8] 102 % of control | [9] 103 % of control

COC(=O)c1ccccc1N=NNc1cccc(SC)c1
inactive: [7] 95 % of control | [8] 93 % of control

CN(CCOS(=O)(=O)O)CCOS(=O)(=O)O
inactive: dose: 37.5 mg/kg/injection, schedule: Q01DX009 (ip), vehicle: saline 98 % of control | dose: 75.0 mg/kg/injection, schedule: Q01DX009 (ip), vehicle: saline 98 % of control | dose: 75.0 mg/kg/injection, schedule: Q04DX003 (ip), vehicle: saline 102 % of control | dose: 150.0 mg/kg/injection, schedule: Q01DX009 (ip), vehicle: saline 95 % of control | dose: 150.0 mg/kg/injection, schedule: Q04DX003 (ip), vehicle: saline 100 % of control | dose: 300.0 mg/kg/injection, schedule: Q04DX003 (ip), vehicle: saline 96 % of control

CC(C)CCNc1ncnc2c1cnn2C
inactive: dose: 25.0 mg/kg/injection, schedule: Q04DX003 (ip), vehicle: saline 97 % of control | dose: 50.0 mg/kg/injection, schedule: Q04DX003 (ip), vehicle: saline 97 % of control | [1] 102 % of control

COC(C(=O)O)c1cccc2ccccc12 (centres undefined)
inactive: [10] 113 % of control | [11] 109 % of control | [12] 98 % of control

CC(=O)N(C)c1ccc(NC(=O)Nc2ccc(F)cc2)cc1
inactive: [2] 97 % of control | dose: 100.0 mg/kg/injection, schedule: Q01DX009 (ip), vehicle: carboxymethylcellulose (CMC) 95 % of control and 103 % of control | dose: 100.0 mg/kg/injection, schedule: Q04DX002 (ip), vehicle: carboxymethylcellulose (CMC) 95 % of control and 97 % of control and 90 % of control | dose: 100.0 mg/kg/injection, schedule: Q04DX003 (ip), vehicle: carboxymethylcellulose (CMC) 104 % of control | [3] 96 % of control | dose: 200.0 mg/kg/injection, schedule: Q01DX009 (ip), vehicle: carboxymethylcellulose (CMC) 101 % of control and 103 % of control | dose: 200.0 mg/kg/injection, schedule: Q04DX002 (ip), vehicle: carboxymethylcellulose (CMC) 93 % of control and 96 % of control and 87 % of control | dose: 200.0 mg/kg/injection, schedule: Q04DX003 (ip), vehicle: carboxymethylcellulose (CMC) 107 % of control | [4] 106 % of control | dose: 400.0 mg/kg/injection, schedule: Q01DX009 (ip), vehicle: carboxymethylcellulose (CMC) 95 % of control and 101 % of control | dose: 400.0 mg/kg/injection, schedule: Q04DX002 (ip), vehicle: carboxymethylcellulose (CMC) 97 % of control and 98 % of control and 104 % of control | dose: 400.0 mg/kg/injection, schedule: Q04DX003 (ip), vehicle: carboxymethylcellulose (CMC) 98 % of control

CCSC(C(O)C(O)C(O)CO)n1ccc(N)nc1=O (centres undefined)
inactive: dose: 100.0 mg/kg/injection, schedule: Q01DX005 (ip), vehicle: saline 101 % of control and 104 % of control | [18] 106 % of control and 109 % of control | dose: 200.0 mg/kg/injection, schedule: Q01DX005 (ip), vehicle: saline 95 % of control and 98 % of control and 101 % of control | [16] 106 % of control and 98 % of control | [17] 112 % of control and 102 % of control

O=S(=O)(c1ccc(O)c(F)c1)c1ccc(O)c(F)c1
inactive: dose: 100.0 mg/kg/injection, schedule: Q04DX002 (ip), vehicle: gum acacia 90 % of control | dose: 200.0 mg/kg/injection, schedule: Q04DX002 (ip), vehicle: gum acacia 101 % of control
